{
  "source": "patent US20200289482A1",
  "about": "“CYSTIC FIBROSIS TRANSMEMBRANE CONDUCTANCE REGULATOR MODULATORS FOR TREATING AUTOSOMAL DOMINANT POLYCYSTIC KIDNEY DISEASE” (The Johns Hopkins University, priority 2017, published 2020)",
  "key": {"GADD153": {"tested_on": "GADD153", "experiment": "Western blot of ER stress marker GADD153 in kidney tissue", "format": "in vivo, mouse", "details": "cyst containing mice, VX-809 30 mg/kg BW", "description": "FIG. 11A. FIG. 11B, FIG. 11C, FIG. 11D, and FIG. 11E show expression of ER stress markers GRP78, ErO1, and GADD in Pkd1^−/− mice treated with VX-809. (FIG. 11A & FIG. 11D) Representative Western blot images of GRP78, ErO1, and GADD in lysates of kidney tissue from no cyst induced (ND), cyst induced with doxycycline (D) or cyst induced pkd−/− mice treated with VX-809 (D+VX-809) 30 mg/kg BW. (FIG. 11B, FIG. 11C and FIG. 11E) Columns represent averages±standard errors of GRP78, ErO1, and GADD153 expression. Data were analyzed by non-parametric t-test. n=4 for each treated and control groups. Black lines between lanes represent representative experiments from the same gel but loaded in different lanes. **P<0.01, ***P<0.001;\nGiven that VX-809 alters an ensemble of Hsps, it was evaluated whether VX-809 alters proteins associated with ER stress. To address this question, the levels of three ER stress-associated proteins were measured, 78-kDa glucose-regulated protein (GRP78), ER oxidoreductin 1 (Ero1) and DNA damage-inducible protein 3 (GADD153), also known as C/EBP homologous protein (CHOP) (37). The results are depicted in FIG. 11 show no changes in GRP78 or Ero1 in response to VX-809."}, "AC3": {"tested_on": "AC3", "experiment": "Western blot of adenylyl cyclase 3 expression", "format": "cell-based, mouse", "details": "PN cells treated with VX-809", "description": "FIG. 4A, FIG. 4B, FIG. 4C, FIG. 4D, and FIG. 4E show (FIG. 4A-FIG. 4B) cAMP levels are reduced by VX-809. (FIG. 4A) cAMP levels in mouse tissue were reduced by VX-809. The kidney samples (n=6) analyzed were taken from those depicted in FIG. 1. (FIG. 4B) Confluent PN and PH cells were treated with VX-809 (10 μM) or DMSO for 16 h and then treated with forskolin (100 μM) for 30 min before the cells were harvested for the assay. Columns represent means±SEM. Statistical analysis was performed using a two-tailed Student's t-test. Each set of data is from three individual wells; Note that resting cAMP is greater in PN vs PH cells as previously shown (25). Also note that forskolin caused a large increase in cAMP. A smaller increase occurred with IBMX. However, the increase induced by forskolin alone was similar to that by IBMX plus forskolin. […] (FIG. 4C, FIG. 4D, and FIG. 4E) Adenylyl cyclase expression. (FIG. 4C) Western blot showing the expression of adenylyl cyclase (AC) 6 and AC3 in treated and control PN cells. (FIG. 4D-FIG. 4E) Columns represent means±SEM of the AC3 and AC6 expression. The data were analyzed by non-parametric t-test. The experiment was repeated four times. For all graphs, *P<0.05, **P<0.01, and ***P<0.001;\nThere are two classes of adenylyl cyclases that are regulated by intracellular Ca^2+: one class is activated, and the other inhibited. […]"}, "[1]": {"tested_on": "model ADPKD cell line (PN=pkd−/− knockout)", "experiment": "In vitro cystogenesis (3D Matrigel culture), cyst size", "format": "cell-based, mouse", "set-up": "cyst size, drug treatment regime incl. established cysts: dose or concentration left out as unconfirmed"}, "[2]": {"tested_on": "intracellular Ca2+ in PN cells", "experiment": "Fura-2 Ca2+ imaging assay", "format": "cell-based, mouse", "details": "VX-809 10 μM 16 h", "description": "FIG. 5A, FIG. 5B, FIG. 5C, FIG. 5D, FIG. 5E, and FIG. 5F show intracellular Ca2+ (F340/F380) levels obtained by ratiometric Fura-2 AM analysis of PN cells treated with VX-809 (10 μM) for 16 h. (FIG. 5A) Representative traces of intracellular Ca2+ release in response to ATP (100 μM) in PN cells and cells treated with VX-809 (10 μM). (FIG. 5B, FIG. 5C) Graphs summarizing resting calcium levels (FIG. 5B) and the average amplitude of Ca2+ release (FIG. 5C) in response to ATP. (FIG. 5D) Representative traces of ER Ca2+ release in response to thapsigargin (4 μM) in PN cells treated with VX-809. (FIG. 5E, FIG. 5F) Resting calcium levels (FIG. 5E) and the average amplitude of Ca2+ release (FIG. 5F) in response to thapsigargin. Amplitude was measured as the […] of the signal base to peak Δf/f. Significance between the two groups was analyzed using Student's t-test, n=4-5). *P<0.05, ***P<0.001.\nCa^2+-dependent signal transduction is associated with cyst formation (26), (29). […] To address the effect of VX-809 on this Ca^2+ release, the cells were treated with thapsigargin, a specific inhibitor of the ER Ca^2+-ATPase which, when applied, allows Ca^2+ to leak out of the ER through independent Ca^2+-permeable pathways (33). A small effect of VX-809 on resting Ca^2+ was observed.\nOn Day 5 of cell culture, the cells were loaded with the cell-permeant acetoxymethyl (AM) ester of the calcium indicator fura-2 (fura-2/AM) at 37° C. for 90 min. Measurements were made on a Zeiss inverted microscope equipped with a Sutter Lambda 10-2 controller and filter wheel assembly. For ATP stimulation experiments, the cells were exposed to 100 μM ATP diluted in the imaging buffer. A Zeiss FluorArc mercury lamp was used to excite the cells at 340 and 380 nm, and the emission response was measured at 510 nm. Cell fluorescence was measured in response to excitation for 1000 ms at 340 nm and 200 ms at 380 nm once every 4 s. Image acquisition, image analysis, and filter wheel control were performed with IPLab software (see (25))."}},
  "data": [
    {"substance": "lumacaftor [VX-809]", "values": [
      {"measurement": "GADD153 expression (Western blot)", "setting": "GADD153", "value": "equally dramatic reduction in GADD153"},
      {"measurement": "AC3 levels", "setting": "AC3", "value": "decreased"},
      {"measurement": "cyst growth", "setting": "[1]; 10 μM, plus or minus forskolin, treated on Days 0, 2, 4, 6, 8, 10, 12, 14, pictures Day 16", "value": "reduce cyst growth equally well in the presence and absence of forskolin"},
      {"measurement": "cyst size, drug treatment regime incl. established cysts", "setting": "[1]; every other day, or from Days 9-16 on established cysts, in the presence of forskolin", "value": "dramatically reducing cyst size"},
      {"measurement": "resting Ca2+", "setting": "[2]", "value": "small reduction in resting Ca^2+"},
      {"measurement": "intracellular Ca2+ movement in response to ATP", "setting": "[2]; ATP 100 μM", "value": "no effect on intracellular Ca^2+ movement in response to ATP"},
      {"measurement": "thapsigargin-induced release of Ca2+ from the ER", "setting": "[2]; thapsigargin 4 μM", "value": "dramatically reduced the thapsigargin-induced release of Ca^2+ from the ER"}
    ]}
  ]
}
